This is an account of results in patent US4177292A, “Novel 5H-benzocyclohepten-7-amines” (Roussel Uclaf, priority 1977, dated 1979).

The nature of one data set: Acute toxicity. As to conditions: mouse, in vivo, ip; mice, intraperitoneal, determined 48 hours later; read-out: DL50. Here is the method:
The DL50 dose which kills 50% of mice after intraperitoneal administration of the test compound was determined 48 hours later and the DL50 for the compounds is reported in Table III.

In data set [1] the test system is serotonine (5HT) uptake in synaptosomes. Description: Inhibition of Serotonine uptake in vitro. It is filed as biochemical. As to conditions: impure synaptosomes from entire brain of female rat 19 to 21 days old; 37° C., 5 minutes; 14C-5HT 10^-7 M; read-out: Inhibiting concentration IC50 of 14C-5HT uptake. The method, then: (§1) The inhibition of serotonine (5HT) uptake was measured in impure synaptosomes prepared from the entire brain of a female rat 19 to 21 days old using the technique of Kannengiesser et al [Biochemical Pharmacology, Vol. 22, (1973) p. 73].

Data set [2] relates to uptake of 14C-5HT in synaptosomes. The data set can be described thus: Inhibition of Serotonine uptake in vivo (synaptosomes prepared after intraperitoneal administration). As to conditions: Rattus norvegicus, ip, 5 mg/kg intraperitoneal, female rats 19 to 21 days old. The method, then: as §1
The tested products were intraperitoneally administered to a groups of female rats 19 to 21 days old at doses of 5 mg/kg. After 1 hour or 24 hours, the brain was removed and synaptosomes were prepared and placed in an incubator in the presence of 14 C-5HT as indicated in the previous test.

Another data set relates to dogs. Description: Anorexigenic activity. The format is in vivo, dog. As to conditions: oral (gelules), 10 mg/kg, starved about 15 hours. The method, then:
This activity was determined on dogs by the method of Adams et al [J. Pharm. Sci., Vol. 53 (1964), p. 1405] in which the animals received as food exclusively U.A.R. mash with a base of 800 g per day per dog. On the day of the test of a presumed anorexigenic agent, the daily individual ration of the dogs was divided into approximately equal small balls (15 to 20 g) which were offered to the dogs every 10 minutes for 8 hours. Normally the animals regularly accept the small balls successively when they are presented. […] The hourly number of refusal is determined in the animals treated with the same dose and is expressed as a percentage of the total hourly number of small balls presented per […]. At the start of the test, the animals had been starved for about 15 hours although they had drinking water available. They are deprived of water during the test. The test was effected with a group of 7 bastard dogs both male and female weighing between 11.4 and 14 kg (12.1 kg average) selected as a function of their response to a weak dose (5 mg/kg) of fenfluramine.

Setting [3] is: 1 hour, read-out: % inhibition of 14C-5HT uptake after 1 Hour.
The mark [4] stands for this setting: 24 hours, read-out: % inhibition of 14C-5HT uptake after 24 Hours.

Structures can show the parent of a compound that is named as a salt. Where two headings read alike, the source gives them in different places.

On to `CN(C)[C@H]1CCc2ccc(Cl)cc2[C@H](Oc2ccc([N+](=O)[O-])cc2)C1.Cl` (relative stereo) [Example 18, trans N,N-dimethyl-3-chloro-5-[4-nitrophenoxy]-6,7,8,9-tetrahydro-5H-benzocyclohepten-7-amine hydrochloride], for which, in the data set “Acute toxicity”, the LD50 at 48 h is 100 mg/kg. The IC50 in data set [1] worked out at 1.5 µM.
For `CN(C)[C@@H]1CCc2ccccc2[C@H](Oc2ccccc2C(F)(F)F)C1.Cl` (relative stereo) [Example 5, cis N,N-dimethyl-5-[2-trifluoromethylphenoxy]-6,7,8,9-tetrahydro-5H-benzocycloheptene-7-amine hydrochloride] the same measures were 200 mg/kg and 2.3 µM.
For the compound `CN(C)[C@H]1CCc2ccc(Cl)cc2[C@@H](Oc2ccc([N+](=O)[O-])cc2)C1` (relative stereo) [Example 19, cis N,N-dimethyl-3-chloro-5-[4-nitrophenoxy]-6,7,8,9-tetrahydro-5H-benzocyclohepten-7-amino hydrochloride], the LD50 at 48 h in “Acute toxicity” is above 200 mg/kg. In addition, in data set [1], the IC50 worked out at 7.1 µM.
In the case of `COc1ccc(O[C@@H]2C[C@H](N(C)C)CCc3ccccc32)cc1` (relative stereo) [Example 11, cis N,N-dimethyl-5-[4-methoxyphenoxy]-6,7,8,9-tetrahydro-5H-benzocyclohepten-7-amine hydrochloride], in data set [1], the IC50 was determined as 1.3 µM.
As to `CN(C)[C@H]1CCc2ccccc2[C@@H](Oc2ccc([N+](=O)[O-])c(C(F)(F)F)c2)C1` (relative stereo) [Example 17, cis-N,N-dimethyl-5-[4-nitro-3-trifluoromethylphenoxy]-6,7,8,9,-tetrahydro-5H-benzocyclohepten-7-amine], the LD50 at 48 h in “Acute toxicity” is above 400 mg/kg. Besides, the IC50 in data set [1] came out at 0.95 µM.
The term inhibition denotes the relative decrease from the control value, in per cent. Regarding `CN[C@@H]1CCc2ccccc2[C@H](Oc2ccc(C(F)(F)F)cc2)C1.Cl` (relative stereo) [Example 6, cis N-methyl-5-[4-trifluoromethylphenoxy]-6,7,8,9-tetrahydro-5H-benzocycloheptene-7-amine hydrochloride], the LD50 at 48 h in the data set “Acute toxicity” amounted to 400 mg/kg. The IC50 in data set [1] was 1.9 µM. In addition, the inhibition at 5 mg/kg turned out to be 41 ± 3% in data set [2] (setting [3]) and 61 ± 3% in data set [2] (setting [4]).
For `CN(C)[C@@H]1CCc2ccccc2[C@H](Oc2ccc(Br)cc2)C1.Cl` (relative stereo) [Example 7, cis N,N-dimethyl-5-[4-bromophenoxy]-6,7,8,9-tetrahydro-5H-benzocyclohepten-7-amine hydrochloride] the same measures were 150 mg/kg, 0.32 µM, 40 ± 3% and 65 ± 2%.
For the compound `COc1ccccc1O[C@@H]1C[C@H](N(C)C)CCc2ccccc21` (relative stereo) [Example 10, cis N,N-dimethyl-5-[2-methoxyphenoxy]-6,7,8,9-tetrahydro-5H-benzocyclohepten-7-amine hydrochloride], the IC50 in data set [1] was 1.3 µM.
With `CN(C)[C@@H]1CCc2ccccc2[C@H](Oc2ccccc2[N+](=O)[O-])C1.Cl` (relative stereo) [Example 8, cis N,N-dimethyl-5-[2-nitrophenoxy]-6,7,8,9-tetrahydro-5H-benzocyclohepten-7-amine hydrochloride], in the data set “Acute toxicity”, the LD50 at 48 h was 150 mg/kg. Besides, the IC50 in data set [1] worked out at 4 µM.
For `CN(C)[C@@H]1CCc2ccccc2[C@H](Oc2ccc(C(F)(F)F)cc2)C1.Cl` (relative stereo) [Example 3, cis N,N-dimethyl-5-[4-trifluoromethylphenoxy]-6,7,8,9-tetrahydro-5H-benzocycloheptene-7-amine hydrochloride] the same measures were 150 mg/kg and 0.76 µM.
As for `CN(C)[C@H]1CCc2ccccc2[C@@H](Oc2ccc([N+](=O)[O-])cc2)C1` (relative stereo) [Example 1, fumarate of cis N,N-dimethyl-5-[4-nitrophenyloxy]-6,7,8,9-tetrahydro-5H-benzocycloheptene-7-amine], the LD50 at 48 h in the data set “Acute toxicity” amounted to 100 mg/kg. Besides, the IC50 in data set [1] was 0.34 µM. Moreover, the figures for the inhibition at 5 mg/kg in data set [2] (setting [3]) and in data set [2] (setting [4]) were 58 ± 4% and 67 ± 2%, respectively. Also, the “oral anorexigenic activity (refusal of food balls)” value in the data set with dogs was “important oral anorexigenic activity”.
With `CN(C)[C@H]1CCc2ccccc2[C@H](Oc2ccc([N+](=O)[O-])cc2)C1.Cl` (relative stereo) [Example 4, trans N,N-dimethyl-5-[4-nitrophenoxy]-6,7,8,9-tetrahydro-5H-benzocycloheptene-7-amine hydrochloride], in “Acute toxicity”, the LD50 at 48 h was 100 mg/kg. Further, in data set [1], the IC50 turned out to be 0.083 µM. Further, the inhibition at 5 mg/kg in data set [2] (setting [3]) was 61 ± 2%; in data set [2] (setting [4]), 39 ± 4%.
Turning to `CN(C)[C@@H]1CCc2ccccc2[C@H](Oc2ccc(N)cc2)C1.Cl.Cl` (relative stereo) [Example 2, cis N,N-dimethyl-5-[4-aminophenoxy]-6,7,8,9-tetrahydro-5H-benzocycloheptene-7-amine dihydrochloride], in the data set “Acute toxicity”, the LD50 at 48 h was 200 mg/kg. Further, the IC50 in data set [1] turned out to be 14 µM.
